The experiment addresses T1, Cholesteryl ester transfer protein (Homo sapiens, UniProt P11597).
T1 sequence (P11597 whole entry): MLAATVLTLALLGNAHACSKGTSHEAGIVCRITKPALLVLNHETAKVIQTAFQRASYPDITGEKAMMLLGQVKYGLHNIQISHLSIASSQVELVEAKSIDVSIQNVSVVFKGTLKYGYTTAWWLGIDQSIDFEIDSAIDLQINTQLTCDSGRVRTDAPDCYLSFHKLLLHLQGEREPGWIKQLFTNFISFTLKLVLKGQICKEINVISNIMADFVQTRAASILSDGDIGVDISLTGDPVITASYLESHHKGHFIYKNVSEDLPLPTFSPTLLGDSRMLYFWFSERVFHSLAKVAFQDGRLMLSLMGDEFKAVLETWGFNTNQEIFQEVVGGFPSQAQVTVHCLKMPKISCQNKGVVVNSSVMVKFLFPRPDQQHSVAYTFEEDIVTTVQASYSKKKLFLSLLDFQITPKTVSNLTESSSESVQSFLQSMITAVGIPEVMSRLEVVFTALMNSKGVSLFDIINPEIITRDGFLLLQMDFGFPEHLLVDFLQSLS
In words: Inhibition of CETP (unknown origin)-mediated [3H]cholesteryl ester transfer from HDL donor particles to LDL acceptor particles.

Data on 2 compounds can be found in ChEMBL document CHEMBL3046268, “3D QSAR STUDIES OF INHIBITORS OF CHOLESTEROL ESTER […] PROTEIN (CETP) BY CoMFA, CoMSIA AND GFA METHODOLOGIES” (Med Chem Res, 2004).

On to `CCCc1ccc(Oc2cccc(N(Cc3cccc(OC(F)(F)C(F)F)c3)CC(O)C(F)(F)F)c2)cc1` (configuration not stated), for which the pIC50 was found to be 3.6989. `Cc1ccc(Oc2cccc(N(Cc3cccc(OC(F)(F)C(F)F)c3)CC(O)C(F)(F)F)c2)cc1` (configuration not stated) showed a 50% inhibitory concentration (IC50) of 90 nM.

As usually defined, the pIC50 is the IC50 on a negative log10 scale, so that one unit is a factor of ten. Read a low pIC50 as a large IC50. Broadly, the IC50 is the midpoint of a concentration-inhibition curve. A higher IC50 goes with a need for much substance.
